One test concerns the target H3g receptor variant (Homo sapiens, UniProt Q9Y5N1, DEL7-42). Conditions: COS-7 cells transfected with H3g; 1 μM BODIPY-L-Histamine or Fluorescein Histamine in PBS, 37° C., 30 min; compared with H3a wild type. The method, then:
(§1) The full length wild type receptor (H3a) and receptor variants H3g and H3h, as well as the variant H3b (which contains the 240 base, 80 amino acid deletion in intracellular loop 3 (i3) but not the N-terminal 108 base, 36 amino acid deletion), were cloned in pCDNA3.0 eukaryotic expression vector for expression in COS-7 cells. The COS-7 cells grown in culture chambers were transfected with 2 μg of plasmid DNA containing one of the H3 receptor or receptor variants with superfect (Qiagen) transfection reagent.
(§2) Binding of Histamine to receptor or receptor variant was determined by BODIPY-L-Histamine or Fluorescein Histamine (Molecular Probes). Briefly, the transfected cells were washed with PBS and 1 μM of BODIPY-L-Histamine or Fluorescein Histamine in PBS was added to the cells and incubated at 37° C. for 30 min. Unbound fluorescent labeled histamine was washed in cold PBS and the slides were examined immediately under a fluorescent microscope.

A further test concerns the target H3b variant (Homo sapiens, UniProt Q9Y5N1, E19D). Conditions: COS-7 cells transfected with H3b; 1 μM BODIPY-L-Histamine or Fluorescein Histamine in PBS, 37° C., 30 min; compared with H3a wild type. The method, then: as §1, §2
The next test concerns the target H3h receptor variant (Homo sapiens, UniProt Q9Y5N1, DEL7-42). Conditions: COS-7 cells transfected with H3h; 1 μM BODIPY-L-Histamine or Fluorescein Histamine in PBS, 37° C., 30 min; compared with H3a wild type. The method, then:
as §1, §2

Sequence of H3g receptor variant (Q9Y5N1 with tags, fused parts or gaps DEL7-42): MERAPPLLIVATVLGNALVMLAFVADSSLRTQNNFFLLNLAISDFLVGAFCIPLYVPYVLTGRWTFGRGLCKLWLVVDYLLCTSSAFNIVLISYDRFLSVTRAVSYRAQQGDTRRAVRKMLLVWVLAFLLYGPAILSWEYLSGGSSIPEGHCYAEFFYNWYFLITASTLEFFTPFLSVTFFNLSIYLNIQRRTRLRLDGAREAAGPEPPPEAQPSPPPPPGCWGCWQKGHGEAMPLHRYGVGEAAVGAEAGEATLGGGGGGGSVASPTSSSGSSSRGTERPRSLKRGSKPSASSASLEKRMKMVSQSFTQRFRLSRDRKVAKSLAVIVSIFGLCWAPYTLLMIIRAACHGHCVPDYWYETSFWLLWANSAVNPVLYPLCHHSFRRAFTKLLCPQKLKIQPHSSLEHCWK
Sequence of H3b variant (Q9Y5N1 1-365 isoform Q9Y5N1-3 E19D): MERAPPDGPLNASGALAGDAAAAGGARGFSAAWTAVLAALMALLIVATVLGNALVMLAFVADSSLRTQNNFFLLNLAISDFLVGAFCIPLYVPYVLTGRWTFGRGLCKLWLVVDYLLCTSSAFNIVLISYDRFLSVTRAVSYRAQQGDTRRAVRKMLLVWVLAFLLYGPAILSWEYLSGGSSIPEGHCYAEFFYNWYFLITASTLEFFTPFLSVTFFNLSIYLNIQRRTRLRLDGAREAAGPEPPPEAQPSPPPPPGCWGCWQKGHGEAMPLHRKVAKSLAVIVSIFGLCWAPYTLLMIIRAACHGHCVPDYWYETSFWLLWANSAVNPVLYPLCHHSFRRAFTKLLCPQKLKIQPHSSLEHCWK
Sequence of H3h receptor variant (Q9Y5N1 with tags, fused parts or gaps isoform Q9Y5N1-3 DEL7-42): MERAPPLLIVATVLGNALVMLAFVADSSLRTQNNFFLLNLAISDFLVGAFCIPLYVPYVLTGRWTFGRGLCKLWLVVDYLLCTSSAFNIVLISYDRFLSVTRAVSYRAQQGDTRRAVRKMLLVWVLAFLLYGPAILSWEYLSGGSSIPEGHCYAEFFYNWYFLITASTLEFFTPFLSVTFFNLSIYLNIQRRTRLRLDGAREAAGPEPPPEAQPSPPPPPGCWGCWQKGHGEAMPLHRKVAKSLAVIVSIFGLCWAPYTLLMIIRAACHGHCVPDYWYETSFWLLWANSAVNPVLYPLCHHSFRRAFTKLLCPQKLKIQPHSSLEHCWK

Regarding `NCCc1c[nH]cn1` [histamine], the histamine binding entry on H3g receptor variant, at H3b variant and at H3h receptor variant was “comparable to the cell transfected with the H3a wild type receptor” each time.

The values above are taken from patent US7223839B2, “Histamine receptor H3 polynucleotides” (Merck & Co., Inc., priority 2001, dated 2007).
